{
  "source": "patent US7723066B1",
  "about": "“Processes for in vivo production of astaxanthin and phaffia rhodozyma yeast of enhanced astaxanthin content” (Igene Biotechnology, Inc., priority 1988, dated 2010)",
  "type_in_all_cases": "cell-based, Phaffia rhodozyma",
  "key": {"P. rhodozyma [1]": {"system": "P. rhodozyma", "assay": "Inhibitors incorporated into yeast malt extract medium: killing, growth and colony colour", "conditions": "for killing of P. rhodozyma: incorporated into yeast malt extract medium agar; for influence on pigmentation of P. rhodozyma: YM plates or liquid growth media", "description": "The inventors also tried treating P. rhodozyma with several inhibitors of electron transport including thenoyltrifluoroacetone (TTFA), antimycin A, and sodium cyanide."}, "P. rhodozyma [2]": {"system": "P. rhodozyma", "assay": "Morphological selection on agent-containing medium, colonies assayed for pigment", "description": "More specifically, the inventors have discovered that by subjecting a naturally occurring or mutated strain of P. rhodozyma to growth in the presence of a metabolic pathway inhibitor, particularly a main respiratory pathway inhibitor, in the presence of an influence such as an agent or environmental condition which triggers a secondary respiratory pathway, or morphological selection using a selecting agent, and particularly an antibiotic, a cytochrome B inhibitor, or a terpenoid synthetic pathway inhibitor as a selecting agent, a directed and specific selection of highly pigmented P. rhodazyma takes place. For example, plating of the pink yeast, P. rhodozyma, to agar containing an antibiotic, a cytochrome B inhibitor, or a terpenoid synthetic pathway inhibitor gave rise to colonies of unusual morphology characterized by a nonpigmented lower smooth surface that developed highly pigmented vertical papillae after 1 to 2 months.\nThe sequence of mutations and selections with which the highest astaxanthin yielding strains to date have been produced is shown in FIG. 2. With reference to FIG. 2, the naturally occurring parent 67-385, obtained from the American Type Culture Collection ATCC No. 24230, was assayed as containing 200-600 μg/g dry weight of yeast in 6 day growth. 67-385 was subjected to antimycin selection, and higher pigmented progeny, referred to as 10′-887J0 were obtained. The first mutant papillus dissected from the basal colony contained approx. 700 μg total carotenoid/g yeast compared to the parental strain which had 300 to 400 μg/g. 10′-887J0 was assayed to have an astaxanthin content of 960 μg/g dry weight of yeast in 6 day growth. 10′-887J0 was replated to YM agar containing 50 μM antimycin and second generation antimycin colonies were selected. One of these produced 1200 μg/g and another produced 1450 μg/g. […]\nAfter harvest from 30 ml growth medium, the cells are washed in water and resuspended in 30 ml of water. The optical density is measured to determine growth. […]"}, "P. rhodozyma [3]": {"system": "P. rhodozyma", "assay": "Inhibitors incorporated into yeast malt extract medium: killing, growth and colony colour", "conditions": "nicotine 1 mM, imidazole 4 mM, 2-methylimidazole 1 mM, morpholine 10 mM"}, "P. rhodozyma [4]": {"system": "P. rhodozyma", "description": "One of the selected progeny (IGI-887J0; see FIG. 2 and accompanying text) was characterized physiologically.\nSensitivities of the mutants to various respiratory inhibitors including antimycin A, theonyltrifluoroacetine, sodium azide, hydrogen peroxide and sodium cyanide were examined. These inhibitors affect different regions of the respiratory chain."}},
  "note": "Like-named read-outs stand apart in the source and are kept apart here.",
  "data": [
    {"compound": "C1COCCN1", "note": "[morpholine]", "values": [
      {"measurement": "color of the colonies", "setting": "P. rhodozyma [1]", "value": "did visually change the color of the colonies"},
      {"measurement": "growth", "setting": "P. rhodozyma [1]", "value": "did not impair growth"}
    ]},
    {"compound": "C[C@@]1(O)CCOC(=O)C1", "note": "[mevalonic acid lactone]", "values": [
      {"measurement": "pigment of resistant mutant", "setting": "P. rhodozyma [2]; 25 mM mevalonic acid lactone resistant mutant of NTG-mutagenized ATCC 24202, control 275 μg/g", "value": 540, "unit": "µg/g"}
    ]},
    {"compound": "CN1CCCC1c1cccnc1", "note": "(centres unmarked) [nicotine]", "values": [
      {"measurement": "color of the colonies", "setting": "P. rhodozyma [3]", "value": "did visually change the color of the colonies"},
      {"measurement": "growth", "setting": "P. rhodozyma [3]", "value": "did not impair growth"}
    ]},
    {"compound": "c1c[nH]cn1", "note": "[imidazole]", "values": [
      {"measurement": "color of the colonies", "setting": "P. rhodozyma [1]", "value": "did visually change the color of the colonies"},
      {"measurement": "growth", "setting": "P. rhodozyma [1]", "value": "did not impair growth"}
    ]},
    {"compound": "Clc1ccc(COC(Cn2ccnc2)c2ccc(Cl)cc2Cl)c(Cl)c1", "note": "(centres unmarked) [miconazole]", "values": [
      {"measurement": "killing of P. rhodozyma", "setting": "P. rhodozyma [1]", "value": "significant killing"}
    ]},
    {"compound": "C[C@@H]1[C@H](O)[C@@H](C)/C=C/C=C/CC/C=C/C=C/C=C/C=C/C(O[C@H]2O[C@H](C)[C@@H](O)[C@H](N)[C@@H]2O)CC2O[C@](O)(CC(O)C(O)CCC(O)CC(O)CC(O)CC(=O)O[C@H]1C)CC(O)C2C(=O)O", "note": "(some centres unmarked) [nystatin]", "values": [
      {"measurement": "pigment of highest mutant", "setting": "P. rhodozyma [2]; mutant of ATCC 24202 from 3 and 5 μg/ml nystatin, control 270 μg/g", "value": 400, "unit": "µg/g"}
    ]},
    {"compound": "tunicamycin", "values": [
      {"measurement": "pigment of resistant mutant", "setting": "P. rhodozyma [2]; 8 μg/ml tunicamycin resistant mutant of ATCC 24202, control 270 μg/g", "value": 610, "unit": "µg/g"}
    ]},
    {"compound": "[N-]=[N+]=[N-].[Na+]", "note": "[azide, sodium azide]", "values": [
      {"measurement": "sensitivity of mutant compared with natural isolate", "setting": "P. rhodozyma [4]", "value": "did not differ"},
      {"measurement": "sensitivity of the antimycin mutants compared with parental strain", "setting": "P. rhodozyma [4]", "value": "did not differ in sensitivity"},
      {"measurement": "killing of naturally occurring P. rhodozyma by inhibitors of electron transport", "setting": "P. rhodozyma [1]", "value": "relatively insensitive"}
    ]},
    {"compound": "O=C(CC(=O)C(F)(F)F)c1cccs1", "note": "[TTFA, thenoyltrifluoroacetone]", "values": [
      {"measurement": "sensitivity of the antimycin mutants compared with parental strain", "setting": "P. rhodozyma [4]; antimycin-isolated mutants", "value": "quite sensitive"},
      {"measurement": "sensitivity of mutant compared with natural isolate", "setting": "P. rhodozyma [4]; strain IGI-887J0", "value": "increased sensitivities"},
      {"measurement": "influence on pigmentation of P. rhodozyma", "setting": "P. rhodozyma [1]", "value": "do not seem to significantly influence pigmentation"},
      {"measurement": "killing of naturally occurring P. rhodozyma by inhibitors of electron transport", "setting": "P. rhodozyma [1]; naturally occurring P. rhodozyma", "value": "substantially killed by low concentrations"}
    ]},
    {"compound": "CC(=O)N1CCN(c2ccc(OCC3COC(Cn4ccnc4)(c4ccc(Cl)cc4Cl)O3)cc2)CC1", "note": "(centres unmarked) [ketoconazole]", "values": [
      {"measurement": "killing of P. rhodozyma", "setting": "P. rhodozyma [1]", "value": "significant killing"}
    ]},
    {"compound": "Cc1ncc[nH]1", "note": "[2-methylimidazole]", "values": [
      {"measurement": "color of the colonies", "setting": "P. rhodozyma [3]", "value": "did visually change the color of the colonies"},
      {"measurement": "growth", "setting": "P. rhodozyma [3]", "value": "did not impair growth"}
    ]},
    {"compound": "OO", "note": "[hydrogen peroxide]", "values": [
      {"measurement": "sensitivity of mutant compared with natural isolate", "setting": "P. rhodozyma [4]", "value": "more sensitive to killing"},
      {"measurement": "sensitivity of the antimycin mutants compared with parental strain", "setting": "P. rhodozyma [4]", "value": "quite sensitive"}
    ]},
    {"compound": "C=C(C)[C@H]1Cc2c(ccc3c2O[C@@H]2COc4cc(OC)c(OC)cc4[C@@H]2C3=O)O1", "note": "[rotenone]", "values": [
      {"measurement": "influence on pigmentation of P. rhodozyma", "setting": "P. rhodozyma [1]", "value": "do not seem to significantly influence pigmentation"}
    ]}
  ]
}
